Measurements as given in ChEMBL document CHEMBL4330113, “Discovery of new quinazoline derivatives as irreversible dual EGFR/HER2 inhibitors and their anticancer activities - Part 1” (Bioorg Med Chem Lett, 2019).

Columns and labels:
NCI-H1975 [1] = assay: cells; details: Homo sapiens, NCI-H1975, 72 h
Description: Antiproliferative activity against human NCI-H1975 cells harboring EGFR T790M mutant after 72 hrs by CCK8 assay

MDA-MB-453 = assay: Antiproliferative activity against human MDA-MB-453 cells after 72 hrs by CCK8 assay; type: functional, cell-based; details: MDA-MB-453, 72 h
A-431 = assay: cells; details: Homo sapiens, A-431, 72 h
Description: Antiproliferative activity against human A431 cells harboring wild-type EGFR after 72 hrs by CCK8 assay

HCC827 = assay: cells; details: Homo sapiens, HCC827, 72 h
Description: Antiproliferative activity against human HCC827 cells harboring EGFR L858R mutant after 72 hrs by CCK8 assay

NCI-H1975 [2] = assay: Antitumor activity against human NCI-H1975 cells harboring EGFR T790M mutant xenografted in po dosed BALB/c mouse assessed as tumor growth inhibition administered via gavage qd or qod for 14 days measured at 7 days post last dose; type: functional, organism-based
[3] = Oral bioavailability in Sprague-Dawley rat at 10 mg/kg; type: ADME, organism-based; details: in vivo
[4] = Cmax in Sprague-Dawley rat at 5 mg/kg, iv or 10 mg/kg, po; type: ADME, organism-based; details: in vivo
[5] = Tmax in Sprague-Dawley rat at 5 mg/kg, iv or 10 mg/kg, po; type: ADME, organism-based; details: in vivo
[6] = biological target: Epidermal growth factor receptor (Homo sapiens, UniProt P00533); assay: Inhibition of recombinant human GST-tagged EGFR catalytic domain (668 to 1210 residues) expressed in baculovirus expression system using TK-biotin peptide as substrate measured after 10 mins by HTRF assay
Chain of Epidermal growth factor receptor (P00533 whole entry, the tested form may be a part): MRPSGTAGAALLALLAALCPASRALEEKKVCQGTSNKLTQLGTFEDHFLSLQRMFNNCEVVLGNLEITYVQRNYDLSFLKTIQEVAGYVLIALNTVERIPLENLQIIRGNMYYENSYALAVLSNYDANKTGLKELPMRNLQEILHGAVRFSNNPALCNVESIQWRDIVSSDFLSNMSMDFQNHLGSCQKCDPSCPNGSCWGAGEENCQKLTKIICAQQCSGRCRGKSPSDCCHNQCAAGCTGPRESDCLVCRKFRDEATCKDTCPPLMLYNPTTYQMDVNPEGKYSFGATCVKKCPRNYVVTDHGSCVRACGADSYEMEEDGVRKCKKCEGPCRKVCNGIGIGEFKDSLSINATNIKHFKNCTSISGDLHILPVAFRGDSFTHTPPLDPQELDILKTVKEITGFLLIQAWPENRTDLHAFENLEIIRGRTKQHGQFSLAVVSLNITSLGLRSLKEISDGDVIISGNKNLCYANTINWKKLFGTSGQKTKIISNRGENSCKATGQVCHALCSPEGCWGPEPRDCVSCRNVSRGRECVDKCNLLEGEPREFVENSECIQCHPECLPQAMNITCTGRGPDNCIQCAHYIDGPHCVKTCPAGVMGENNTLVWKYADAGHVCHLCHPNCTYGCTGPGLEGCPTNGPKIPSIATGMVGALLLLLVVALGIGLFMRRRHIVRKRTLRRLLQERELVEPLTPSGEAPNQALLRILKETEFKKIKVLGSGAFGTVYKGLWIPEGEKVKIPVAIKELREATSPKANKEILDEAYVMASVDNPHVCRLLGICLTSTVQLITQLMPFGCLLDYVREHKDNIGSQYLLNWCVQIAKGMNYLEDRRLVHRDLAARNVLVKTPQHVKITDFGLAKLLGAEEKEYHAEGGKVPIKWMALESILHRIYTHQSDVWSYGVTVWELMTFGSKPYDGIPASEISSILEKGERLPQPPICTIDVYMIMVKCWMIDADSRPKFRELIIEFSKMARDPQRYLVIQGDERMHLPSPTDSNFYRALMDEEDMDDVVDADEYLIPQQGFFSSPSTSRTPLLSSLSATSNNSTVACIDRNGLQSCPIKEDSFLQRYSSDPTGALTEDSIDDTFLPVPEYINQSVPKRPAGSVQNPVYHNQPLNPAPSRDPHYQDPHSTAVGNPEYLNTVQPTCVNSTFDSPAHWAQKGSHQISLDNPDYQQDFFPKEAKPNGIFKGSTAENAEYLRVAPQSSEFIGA

NCI-H1975 [7] = assay: Antitumor activity against human NCI-H1975 cells harboring EGFR T790M mutant xenografted in BALB/c mouse assessed as tumor growth inhibition at 5 mg/kg, po administered daily via gavage for 14 days measured at 7 days post last dose relative to control; type: functional
[8] = Half life in Sprague-Dawley rat at 5 mg/kg, iv or 10 mg/kg, po; type: ADME, organism-based; details: in vivo
NCI-H1975 [9] = assay: Antitumor activity against human NCI-H1975 cells harboring EGFR T790M mutant xenografted in BALB/c mouse assessed as tumor growth inhibition at 20 mg/kg, po administered every other day via gavage for 14 days measured at 7 days post last dose relative to control; type: functional
NCI-H1975 [10] = assay: Antitumor activity against human NCI-H1975 cells harboring EGFR T790M mutant xenografted in BALB/c mouse assessed as tumor growth inhibition at 80 mg/kg, po administered every other day via gavage for 14 days measured at 7 days post last dose relative to control; type: functional
NCI-H1975 [11] = assay: Antitumor activity against human NCI-H1975 cells harboring EGFR T790M mutant xenografted in BALB/c mouse assessed as tumor growth inhibition at 20 mg/kg, po administered daily via gavage for 14 days measured at 7 days post last dose relative to control; type: functional

Structure (SMILES)	IC50 (NCI-H1975 [1]) [nM]	IC50 (MDA-MB-453) [nM]	IC50 (A-431) [nM]	IC50 (HCC827) [nM]	further results
CCOCCOc1cc2ncnc(Nc3ccc(F)c(Cl)c3)c2cc1NC(=O)/C=C/Cl	7.43	14.9	289		
C=C(Cl)C(=O)Nc1cc2c(Nc3ccc(F)c(Cl)c3)ncnc2cc1OCCOCC	37.1	3.71	369	33.2	
CCOCCOc1cc2ncnc(Nc3ccc(F)c(Cl)c3)c2cc1NC(=O)/C=C/CN(C)C [listing 1 of 2 here]					TGI (NCI-H1975 [2]): Dose-dependent effect
CCOCCOc1cc2ncnc(Nc3ccc(F)c(Cl)c3)c2cc1NC(=O)/C=C\C#N	18.4	0.68	94.8	5.56	
CCOCCOc1cc2ncnc(Nc3ccc(OCCOC)c(Cl)c3)c2cc1NC(=O)/C=C/CN(C)C	7.3	1.65	20.1	3.43	
CCOCCOc1cc2ncnc(Nc3ccc(F)c(Cl)c3)c2cc1NC(=O)/C=C/Br	8.21	3.99	297	4.86	
CCOCCOc1ccc(Nc2ncnc3cc(OCCOCC)c(NC(=O)/C=C/CN(C)C)cc23)cc1Cl	6.17	2.52	13.7	0.34	
COCCCOc1cc2ncnc(Nc3ccc(F)c(Cl)c3)c2cc1NC(=O)/C=C/CN(C)C				0.29	
CCOCCOc1cc2ncnc(Nc3ccc(F)c(Cl)c3)c2cc1NC(=O)/C=C\Cl	1.6		24		
C#CC(=O)Nc1cc2c(Nc3ccc(F)c(Cl)c3)ncnc2cc1OCCOCC	49.3	3.42	11.4	1.46	
CCCOCCOc1cc2ncnc(Nc3ccc(F)c(Cl)c3)c2cc1NC(=O)/C=C/CN(C)C			8.15	0.55	
C=C(F)C(=O)Nc1cc2c(Nc3ccc(F)c(Cl)c3)ncnc2cc1OCCOCC	72.5	58.2	54.5	0.53	
C=C(Br)C(=O)Nc1cc2c(Nc3ccc(F)c(Cl)c3)ncnc2cc1OCCOCC	39.4	15.1	572	6.39	
COC[C@@H](C)Oc1cc2ncnc(Nc3ccc(F)c(Cl)c3)c2cc1NC(=O)/C=C/CN(C)C	49.9		43		
CCOCCOc1cc2ncnc(Nc3ccc(F)c(Cl)c3)c2cc1NC(=O)/C=C/C(F)(F)F	27.6	18.3	148	0.15	
C=CS(=O)(=O)Nc1cc2c(Nc3ccc(F)c(Cl)c3)ncnc2cc1OCCOCC	13.7	130	3.37	3.95	
CCOCCOc1cc2ncnc(Nc3ccc(F)c(Cl)c3)c2cc1NC(=O)/C=C/C(=O)OCC	35.2	21.6	207	0.987	
COC[C@H](C)Oc1cc2ncnc(Nc3ccc(F)c(Cl)c3)c2cc1NC(=O)/C=C/CN(C)C	66.5		16.7		
CC(C)OCCOc1cc2ncnc(Nc3ccc(F)c(Cl)c3)c2cc1NC(=O)/C=C/CN(C)C			5.86	0.55	
CCOCCOc1cc2ncnc(Nc3ccc(OCC(F)(F)F)c(Cl)c3)c2cc1NC(=O)/C=C/CN(C)C	107	2.55	64.1	2.9	
C=CC(=O)Nc1cc2c(Nc3ccc(F)c(Cl)c3)ncnc2cc1OCCOCC	51.8	5.67	6.01	0.15	
CCOCCOc1cc2ncnc(Nc3ccc(NCCS(C)(=O)=O)c(Cl)c3)c2cc1NC(=O)/C=C/CN(C)C	65.6	12.7	6.48	0.53	
CCOCCOc1cc2ncnc(Nc3ccc(F)c(Cl)c3)c2cc1NC(=O)/C=C/CN(C)C.O=C(O)/C=C\C(=O)O					bioavailability [3]: 70%
CCOCCOc1cc2ncnc(Nc3ccc(F)c(Cl)c3)c2cc1NC(=O)/C=C/CN(C)C [listing 2 of 2 here]		0.62	1.52	0.31	bioavailability [3]: 46%; Cmax [4]: 92.3 ng/mL; Tmax [5]: 4 h; IC50 [6]: 0.69 nM; inhibition in vivo at 5 mg/kg (NCI-H1975 [7]): 73.2%; half-life [8]: 6.8 h; inhibition in vivo at 20 mg/kg (NCI-H1975 [9]): 82%; inhibition in vivo at 80 mg/kg (NCI-H1975 [10]): 95.1%
CCOCCOc1cc2ncnc(Nc3ccc(OCc4cccc(F)c4)c(Cl)c3)c2cc1NC(=O)/C=C/CN(C)C	49.7		79.5		
CN(C)C/C=C/C(=O)Nc1cc2c(Nc3ccc(F)c(Cl)c3)ncnc2cc1O[C@H]1CCOC1 [AFATINIB]					inhibition in vivo at 20 mg/kg (NCI-H1975 [11]): 67.6%
